Laboratory results taken from US8389526B2, “3-heteroarylmethyl-imidazo[1,2-b]pyridazin-6-yl derivatives” (Novartis AG, priority 2009, dated 2013).

Assays:
[1] = biological target: T1, c-Met receptor tyrosine kinase, GST-c-Met(969-1390) (Homo sapiens, UniProt P08581); assay: EPK c-Met profiling assay (LanthaScreen TR-FRET kinase assay); assay type: biochemical; conditions: 2 μM ATP, 0.3 nM enzyme, 60 minutes at room temperature
T1 construct: made in house
Experimental: A number of compounds of the present invention were assayed in an antibody based kinase phosphorylation assay as follows.
Epk c-Met Profiling Assay:
The EPK kinase assay for c-Met receptor tyrosine kinase was developed, using the purified recombinant GST-fusion protein, containing the cytoplasmic domain of the enzyme. GST-c-Met(969-1390) was purified by affinity chromatography.
The kinase assay is based on the LanthaScreen™ technology. LanthaScreen™ is the detection of Time-Resolved Fluorescence Resonance Energy Transfer (TR-FRET) using lanthanide chelates to measure interactions between various binding partners. In a TR-FRET kinase assay, a long-lifetime lanthanide donor species is conjugated to an antibody that specifically binds to a phosphorylated product of a kinase reaction that is labeled with a suitable acceptor fluorophore. This antibody-mediated interaction brings the lanthanide donor and the acceptor into proximity such that resonance energy transfer can take place, resulting in a detectible increase in the FRET signal.
The kinase reactions were performed in 384 well microtiter plates in a total reaction volume of 9.05 μL. The assay plates were prepared with 0.05 μL per well of test compound in the appropriate test concentration, as described under “preparation of compound dilutions”. The reactions were started by combining 4.5 μL of ATP solution with 4.5 μL of enzyme-substrate mix (consisting of kinase and substrate). The final concentrations in the kinase reactions were 35 mM Tris/HCl, 1 mM DTT, 0.025% Tween20, 10 μM sodium orthovanadate, 0.25% BSA, 0.6% DMSO, 10 mM MgCl2, 3 mM MnCl2, 2 μM ATP, 50 nM Fluorescein-PolyEAY, and 0.3 nM enzyme.
The reactions were incubated for 60 minutes at room temperature and stopped by adding 4.5 μL of stop buffer (50 mM EDTA, 0.04% NP40, 20 mM Tris/HCl).
Subsequently 4.5 μL of detection mix (50 mM Tris/HCl, 2 mM DTT, 0.05% Tween20, 20 μM sodium orthovanadate, 1% BSA, 1.72 μg/mL Tb-PY20 antibody) were added to the stopped reactions. After 30 minutes incubation at room temperature, the plates were measured in a BMG Pherastar fluorescence reader. The effect of compound on the enzymatic activity was in all assays obtained from the linear progress curves and determined from one reading (end point measurement).
Preparation of Compound Dilutions
Test compounds were dissolved in DMSO (10 mM) and transferred into 1.4 mL flat bottom or V-shaped Matrix tubes carrying a unique 2D matrix. The stock solutions were stored at −20° C. if not used immediately. For the test procedure the vials were defrosted and identified by a scanner whereby a working sheet was generated that guided the subsequent working steps.
Compound dilutions were made in 96 well plates. This format enabled the assay of maximally 40 individual test compounds at 8 concentrations (single points) including 4 reference compounds. The dilution protocol included the production of “pre-dilution plates”, “master plates” and “assay plates”.
Pre-dilution plates: 96 polypropylene well plates were used as pre-dilution plates. A total of 4 pre-dilution plates were prepared including 10 test compounds each on the plate positions A1-A10, one standard compound at A11 and one DMSO control at A12. All dilution steps were done on a HamiltonSTAR robot.
Master plates: 100 μL of individual compound dilutions including standard compound and controls of the 4 “pre-dilution plates” were transferred into a 384 “master plate” including the following concentrations 1′820, 564, 182, 54.6, 18.2, 5.46, 1.82 and 0.546 μM, respectively in 90% of DMSO.
Assay plates: Identical “assay plates” were then prepared by pipetting 50 nL each of compound dilutions of the “master plates” into 384-well “assay plates” by means of a HummingBird 384-channel dispenser. These plates were used directly for the assay which was performed in a total volume of 9.05 μL. […]

[2] = test system: MET-amplified gastric cancer cell line GTL-16; assay: GTL-16 proliferation assay (MTS); assay type: cell-based; conditions: Homo sapiens, GTL-16 cells, 72 h incubation
Experimental: (§1) C-Met Dependent Cellular Assays
(§2) A number of compounds of the present invention were assayed in a c-Met dependent proliferation and phosphorylation assay as follows.
GTL-16 proliferation assay: the MET-amplified gastric cancer cell line GTL-16 was grown under standard cell culture conditions in DMEM [Dulbecco's Modified Eagle Medium] (high glucose) supplemented with 10% heat-inactivated fetal calf serum and 2 mM L-glutamine. For proliferation assays, cells were seeded at 3000 per well in 96-well-plates. 24 h later, a 10-point dilution series of each compound (3-fold steps, ranging from […]) was prepared in DMSO. Compound were then diluted 1000-fold in growth media in two steps and added to cells in triplicates, resulting in a final volume of […] per well and maximal final compound concentrations of […]. A DMSO-only control was included. Cells were incubated for 72 h and the amount of viable cells was then measured by adding […] of MTS reagent (CellTiter 96® AQueous Non-Radioactive Cell Proliferation Assay, Promega), further incubation for 30′, and reading the optical density at 490 nm.

[3] = biological target: T2, c-Met (Homo sapiens, UniProt P08581); assay: GTL-16 c-Met autophosphorylation measured by AlphaScreen detection; assay type: cell-based; conditions: GTL-16 cells, 1 h incubation, AlphaScreen p-c-Met; read-out: GTL-16 IC50 c-Met phosphorylation
T2 construct: adapted to measure the phosphorylation of endogenous cellular proteins in cell lysates; endogenous in cells; host or cells: GTL-16
Experimental: as §1, §2
GTL-16 c-Met autophosphorylation measured by AlphaScreen® detection: the human MET-amplified gastric cancer cells GTL-16 were plated in 384-well plates at a density of 10′000 cells in 20 ul complete growth medium (DMEM high glucose supplemented with 10% (v/v) heat inactivated fetal calf serum and of 1 mM sodium pyruvate) and were incubated at […]/5% CO2/95% humidity for 20 h. The cells were washed and the 30 ul assay buffer (DMEM high glucose, 1 mM sodium pyruvate, 0.1% bovine serum albumine) was added. Compounds were diluted in 384-well compound plates to obtain 8-point serial dilutions for 40 test compounds in 90% DMSO, as well as a reference compound plus 16 high- and 16 low (inhibited) controls. These compound plates were prediluted 1:200 in assay buffer into a compound predilution plate and 10 ul of prediluted compound solution were transferred to the cell plate using a 384-well pipettor, resulting in a final DMSO concentration of 0.11%. Cells were incubated for 1 h at […]/5% CO2/95% humidity. The supernatant was removed, the cells were lysed in 25 ul of RIPA [radio immuno precipitation assay] lysis buffer supplemented with 2 mM sodium vanadate and a protease inhibitor cocktail, and cell plates were stored at −80° C.
For detection of p-c-Met, an AlphaScreen®-based assay was used. AlphaScreen® (Amplified Luminescent Proximity Homogeneous Assay, ALPHA, Perkin Elmer, U.S.A) is a non-radioactive bead-based proximity assay technology to study biomolecular interactions in a homogenous microtiter plate format. This technique has been adapted to measure the phosphorylation of endogenous cellular proteins in cell lysates by the use of specific antibody pairs against the total protein and a phospho-specific epitope. 5 ul of cell lysate was transferred to 384-well low volume Proxiplates for detection using a 384-well pipettor. First, 5 ul of a premix of an anti-c-Met antibody (0.25 ug/ml f.c.), a biotinylated PY20 antibody (phosphotyrosine antibody, 0.05 ug/ml f.c.) and AlphaScreen® Protein A-coupled acceptor beads (10 ug/ml f.c.) in RIPA buffer supplemented with 0.25% (v/w) TOP BLOCK, 2 mM sodium vanadate, and a protease inhibitor cocktail and was added, the plate was sealed, and incubated on a plate shaker for 2 hours at room temperature. Second, 2 ul of dilution buffer containing AlphaScreen® Streptavidin-coated donor beads (10 ug/ml f.c.) in RIPA buffer was added, and the plate was incubated on plate shaker as above for a further 2 hours. The plate was read on an AlphaScreen® compatible plate reader, using standard AlphaScreen® settings.

T2 sequence (P08581 25-1390): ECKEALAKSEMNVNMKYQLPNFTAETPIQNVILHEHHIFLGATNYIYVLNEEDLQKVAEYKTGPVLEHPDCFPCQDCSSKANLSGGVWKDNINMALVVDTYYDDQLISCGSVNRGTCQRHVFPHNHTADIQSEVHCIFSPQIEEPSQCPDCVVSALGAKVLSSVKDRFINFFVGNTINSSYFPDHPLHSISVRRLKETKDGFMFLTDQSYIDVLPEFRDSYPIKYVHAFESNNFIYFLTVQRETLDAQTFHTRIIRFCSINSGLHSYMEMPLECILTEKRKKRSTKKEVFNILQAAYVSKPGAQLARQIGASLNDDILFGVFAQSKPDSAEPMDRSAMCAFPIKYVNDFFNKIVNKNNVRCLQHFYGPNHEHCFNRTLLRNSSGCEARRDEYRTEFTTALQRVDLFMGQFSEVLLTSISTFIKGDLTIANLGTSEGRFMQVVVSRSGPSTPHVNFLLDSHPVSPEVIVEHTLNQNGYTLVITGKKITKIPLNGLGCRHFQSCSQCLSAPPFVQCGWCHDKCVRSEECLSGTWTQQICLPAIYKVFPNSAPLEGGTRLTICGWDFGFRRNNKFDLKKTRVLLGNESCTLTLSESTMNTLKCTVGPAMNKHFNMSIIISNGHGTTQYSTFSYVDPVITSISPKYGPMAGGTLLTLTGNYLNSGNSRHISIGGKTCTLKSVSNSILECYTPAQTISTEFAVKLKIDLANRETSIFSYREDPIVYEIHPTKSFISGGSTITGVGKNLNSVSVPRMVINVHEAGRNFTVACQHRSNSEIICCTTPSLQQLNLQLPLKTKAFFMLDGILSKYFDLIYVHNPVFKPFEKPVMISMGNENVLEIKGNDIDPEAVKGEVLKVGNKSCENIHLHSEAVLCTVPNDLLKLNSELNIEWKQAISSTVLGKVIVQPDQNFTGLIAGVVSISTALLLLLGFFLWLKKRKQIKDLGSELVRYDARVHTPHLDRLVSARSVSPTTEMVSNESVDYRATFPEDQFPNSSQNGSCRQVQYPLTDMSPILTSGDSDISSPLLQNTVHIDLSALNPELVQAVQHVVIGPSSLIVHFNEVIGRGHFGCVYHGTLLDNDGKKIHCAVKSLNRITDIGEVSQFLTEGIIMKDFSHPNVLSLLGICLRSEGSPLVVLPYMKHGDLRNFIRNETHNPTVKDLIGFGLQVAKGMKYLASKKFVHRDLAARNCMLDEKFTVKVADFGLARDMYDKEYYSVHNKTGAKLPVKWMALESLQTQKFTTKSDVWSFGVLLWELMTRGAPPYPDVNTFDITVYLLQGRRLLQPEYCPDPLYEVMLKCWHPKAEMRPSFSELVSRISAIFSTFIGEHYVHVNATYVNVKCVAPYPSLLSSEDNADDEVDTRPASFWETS
T1 sequence (P08581 969-1390): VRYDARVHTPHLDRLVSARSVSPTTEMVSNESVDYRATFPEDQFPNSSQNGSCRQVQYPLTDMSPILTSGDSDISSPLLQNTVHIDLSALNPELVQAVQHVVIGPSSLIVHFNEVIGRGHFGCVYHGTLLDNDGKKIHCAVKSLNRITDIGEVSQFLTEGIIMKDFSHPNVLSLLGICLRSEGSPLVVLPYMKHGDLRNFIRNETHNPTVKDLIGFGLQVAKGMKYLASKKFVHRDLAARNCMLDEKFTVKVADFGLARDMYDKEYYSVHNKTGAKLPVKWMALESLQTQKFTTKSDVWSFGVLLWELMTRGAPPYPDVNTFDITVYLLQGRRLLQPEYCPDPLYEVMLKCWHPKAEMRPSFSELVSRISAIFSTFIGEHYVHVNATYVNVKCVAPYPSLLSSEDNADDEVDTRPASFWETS

CC(c1c(F)cc2ncccc2c1F)c1cnc2ccc(N3CCN(C(=O)C(F)(F)F)CC3)nn12 (racemic) [Example 17, (rac)-1-(4-{3-[1-(5,7-Difluoro-quinolin-6-yl)-ethyl]-imidazo[1,2-b]pyridazin-6-yl}-piperazin-1-yl)-2,2,2-trifluoro-ethanone]
IC50 [1]: 24 nM | IC50 [2]: 20 nM | IC50 [3]: 14 nM

CC(c1c(F)cc2ncccc2c1F)c1cnc2ccc(N3CCN(C4CCCC4)C(=O)C3)nn12 (racemic) [Example 20, (rac)-4-{3-[1-(5,7-Difluoro-quinolin-6-yl)-ethyl]-imidazo[1,2-b]pyridazin-6-yl}-1-cyclopentylpiperazin-2-one]
IC50 [1]: 27 nM | IC50 [2]: 21 nM | IC50 [3]: 7 nM

CC(c1c(F)cc2ncccc2c1F)c1cnc2ccc(N3CCN(C)C(=O)C3C)nn12 (racemic) [Example 21, (rac)-4-{3-[1-(5,7-Difluoro-quinolin-6-yl)-ethyl]-imidazo[1,2-b]pyridazin-6-yl}-1,3-dimethylpiperazin-2-one]
IC50 [1]: 19 nM | IC50 [2]: 9 nM | IC50 [3]: < 3 nM

CC(c1c(F)cc2ncccc2c1F)c1cnc2ccc(N3CCN(c4ccccc4)C(=O)C3)nn12 (racemic) [Example 22, (rac)-4-{3-[1-(5,7-Difluoro-quinolin-6-yl)-ethyl]-imidazo[1,2-b]pyridazin-6-yl}-1-phenylpiperazin-2-one]
IC50 [1]: 14 nM | IC50 [2]: 15 nM | IC50 [3]: 6 nM

CC(c1c(F)cc2ncccc2c1F)c1cnc2ccc(N3CC(=O)NCC3C)nn12 (racemic) [Example 23, (rac)-4-{3-[1-(5,7-Difluoro-quinolin-6-yl)-ethyl]-imidazo[1,2-b]pyridazin-6-yl}-5-methylpiperazin-2-one]
IC50 [1]: 15 nM | IC50 [2]: 8.5 nM | IC50 [3]: 3.3 nM

CC1CN(c2ccc3ncc(C(C)c4c(F)cc5ncccc5c4F)n3n2)CC(=O)N1 (racemic) [Example 24, (rac)-4-{3-[1-(5,7-Difluoro-quinolin-6-yl)-ethyl]-imidazo[1,2-b]pyridazin-6-yl}-6-methylpiperazin-2-one]
IC50 [1]: 4 nM | IC50 [2]: 9.8 nM | IC50 [3]: 4 nM

CC(c1c(F)cc2ncccc2c1F)c1cnc2ccc(N3CCN(c4ccccn4)C(=O)C3)nn12 (racemic) [Example 25, (rac)-4-{3-[1-(5,7-Difluoro-quinolin-6-yl)-ethyl]-imidazo[1,2-b]pyridazin-6-yl}-1-(pyridin-2-yl)piperazin-2-one]
IC50 [1]: 15 nM | IC50 [2]: 13 nM | IC50 [3]: 8 nM

CC(c1cc2cnn(C)c2cc1F)c1cnc2ccc(N3CCNC(=O)C3)nn12 (racemic) [Example 27, (rac)-4-{3-[1-(6-Fluoro-1-methyl-1H-indazol-5-yl)-ethyl]-imidazo[1,2-b]pyridazin-6-yl}-piperazin-2-one]
IC50 [1]: 73 nM | IC50 [2]: 173 nM | IC50 [3]: 3 nM

CC(c1cc2cccnc2cc1F)c1cnc2ccc(N3CCN(C)C(=O)C3)nn12 (racemic) [Example 40, (rac)-4-{3-[1-(7-Fluoro-quinolin-6-yl)-ethyl]-imidazo[1,2-b]pyridazin-6-yl}-1-methyl-piperazin-2-one]
IC50 [1]: 39 nM | IC50 [2]: 147 nM | IC50 [3]: 11 nM

CC(c1cc2cccnc2cc1F)c1cnc2ccc(N3CCNC(=O)C3)nn12 (racemic) [Example 41, (rac)-4-{3-[1-(7-Fluoro-quinolin-6-yl)-ethyl]-imidazo[1,2-b]pyridazin-6-yl}-piperazin-2-one]
IC50 [1]: 23 nM | IC50 [2]: 49 nM | IC50 [3]: < 3 nM

CC(=O)N1CCN(c2ccc3ncc(C(C)c4cc5cccnc5cc4F)n3n2)CC1 (racemic) [Example 42, (rac)-1-(4-{3-[1-(7-Fluoro-quinolin-6-yl)-ethyl]-imidazo[1,2-b]pyridazin-6-yl}-piperazin-1-yl)ethanone]
IC50 [1]: 49 nM | IC50 [2]: 193 nM | IC50 [3]: 39 nM

CC(c1ccc2ncccc2c1F)c1cnc2ccc(N3CCN(C)C(=O)C3)nn12 (racemic) [Example 46, (rac)-4-{3-[1-(5-Fluoro-quinolin-6-yl)-ethyl]-imidazo[1,2-b]pyridazin-6-yl}-1-methyl-piperazin-2-one]
IC50 [1]: 30 nM | IC50 [2]: 47 nM | IC50 [3]: 15 nM

CC(c1ccc2ncccc2c1F)c1cnc2ccc(N3CCNC(=O)C3)nn12 (racemic) [Example 47, (rac)-4-{3-[1-(5-Fluoro-quinolin-6-yl)-ethyl]-imidazo[1,2-b]pyridazin-6-yl}-piperazin-2-one]
IC50 [1]: 15 nM | IC50 [2]: 19 nM | IC50 [3]: 5.5 nM

CC(=O)N1CCN(c2ccc3ncc(C(C)c4ccc5ncccc5c4F)n3n2)CC1 (racemic) [Example 48, (rac)-1-(4-{3-[1-(5-Fluoro-quinolin-6-yl)-ethyl]-imidazo[1,2-b]pyridazin-6-yl}-piperazin-1-yl)ethanone]
IC50 [1]: 140 nM | IC50 [2]: 168 nM | IC50 [3]: 35 nM
